Results on 41 compounds are retold here after patent US20150141411A1, “SUBSTITUTED 3,4-DIHYDRO-2H-PYRIDO[1,2-A]PYRAZINE-1,6-DIONE DERIVATIVES USEFUL FOR THE TREATMENT OF (INTER ALIA) ALZHEIMER'S DISEASE” (Janssen Pharmaceuticals, Inc., priority 2012, published 2015).

Where only a bound is given, the exact number is not on record here.

Assay [1] addresses T1, γ-secretase (Homo sapiens, UniProt P49768).
T1 construct: endogenous in cells; host or cells: SKNBE2 human neuroblastoma cells (carrying hAPP 695 wild type as substrate)
Briefly: Screening for γ-secretase-modulating activity: Aβtotal in supernatant of SKNBE2 cells carrying hAPP 695 wild type (Alphalisa). Format: cell-based. To be noted: SKNBE2 human neuroblastoma cells carrying hAPP 695 wild type, overnight incubation, Aβtotal in cell supernatant. As for the experimental part: (§1) Screening was carried out using SKNBE2 human neuroblastoma cells carrying the hAPP 695—wild type, grown in Dulbecco's Modified Eagle's Medium/Nutrient mixture F-12 (DMEM/NUT-mix F-12) (HAM) provided by Invitrogen (cat no. 10371-029) containing 5% Serum/Fe supplemented with 1% non-essential amino acids, 1-glutamine 2 mM, Hepes 15 mM, penicillin 50 U/ml (units/ml) en streptomycin 50 μg/ml. Cells were grown to near confluency.
(§2) The screening was performed using a modification of the assay as described in Citron et al (1997) Nature Medicine 3: 67. Briefly, cells were plated in a 384-well plate at 10^4 cells/well in Ultraculture (Lonza, BE12-725F) supplemented with 1% glutamine (Invitrogen, 25030-024), 1% non-essential amino acid (NEAA), penicillin 50 U/ml en streptomycin 50 μg/ml in the presence of test compound at different test concentrations. The cell/compound mixture was incubated overnight at 37° C., 5% CO2. The next day the media were assayed by two sandwich immuno-assays, for Aβ42 and Aβ total.
(§3) Aβtotal and Aβ42 concentrations were quantified in the cell supernatant using the Aphalisa technology (Perkin Elmer). Alphalisa is a sandwich assay using biotinylated antibody attached to streptavidin coated donorbeads and antibody conjugated to acceptor beads. In the presence of antigen, the beads come into close proximity. The excitation of the donor beads provokes the release of singlet oxygen molecules that trigger a cascade of energy transfer in the acceptor beads, resulting in light emission. To quantify the amount of Aβ42 in the cell supernatant, monoclonal antibody specific to the C-terminus of Aβ42 (JRF/cAβ42/26) was coupled to the receptor beads and biotinylated antibody specific to the N-terminus of Aβ (JRF/AβN/25) was used to react with the donor beads. To quantify the amount of Aβtotal in the cell supernatant, monoclonal antibody specific to the N-terminus of Aβ (JRF/AβN/25) was coupled to the receptor beads and biotinylated antibody specific to the mid region of Aβ (biotinylated 4G8) was used to react with the donor beads.
(§4) To obtain the values reported in Table 3, the data are calculated as percentage of the maximum amount of amyloid Beta 42 measured in the absence of the test compound. The sigmoidal dose response curves were analyzed using non-linear regression analysis with percentage of the control plotted against the log concentration of the compound. A 4-parameter equation was used to determine the IC50.
Background: Bead proximity is the source of the signal in Alpha formats.

Assay [2] addresses T1, γ-secretase. Briefly: Screening for γ-secretase-modulating activity: Aβ42 in supernatant of SKNBE2 cells carrying hAPP 695 wild type (Alphalisa). Format: cell-based. To be noted: SKNBE2 human neuroblastoma cells carrying hAPP 695 wild type, overnight incubation, Aβ42 in cell supernatant. As for the experimental part: as §1, §2, §3, §4

Turning to `Cc1cn(-c2ccc3n(c2=O)C[C@@H](C)N(C(C)c2cc(CC4CC4)cc(C(F)(F)F)c2)C3=O)cn1` (single isomer, unassigned) [compound 135], the IC50 on γ-secretase [1] was above 10000 nM; against γ-secretase [2], 20 nM.

As for `Cc1cn(-c2ccc3n(c2=O)CCN(Cc2nccc(OCC(F)(F)F)c2C)C3=O)cn1` [compound 98], the figures for the IC50 at γ-secretase [1] and against γ-secretase [2] were above 10000 nM and 2880 nM, respectively.

With `Cc1cn(-c2ccc3n(c2=O)C[C@@H](C)N(Cc2c[nH]c4ccc(Cl)cc24)C3=O)cn1` [compound 138], the IC50 on γ-secretase [1] was above 10000 nM; against γ-secretase [2], 40 nM.

`CCn1cc(CN2C(=O)c3ccc(-n4cnc(C)c4)c(=O)n3C[C@H]2C)c2cc(C)ccc21` [compound 250]: the IC50 at γ-secretase [1] is above 10000 nM; against γ-secretase [2], 50 nM.

Take `Cc1cn(-c2ccc3n(c2=O)C[C@@H](C)N(Cc2cn(C)c4cc(C(F)(F)F)c(F)cc24)C3=O)cn1` [compound 258]: the IC50 on γ-secretase [1] amounted to 9000 nM; against γ-secretase [2] it was 20 nM.

As to `Cc1cn(-c2ccc3n(c2=O)C[C@@H](C)N(Cc2csc4ccc(Cl)cc24)C3=O)cn1` [compound 165], the IC50 was above 10000 nM against γ-secretase [1] and 20 nM against γ-secretase [2].

Take `Cc1cn(-c2ccc3n(c2=O)CC(C(C)O)N(Cc2cc(C(F)(F)F)cc(C(F)(F)F)c2)C3=O)cn1` (stereo not shown) [compound 167]: the IC50 against γ-secretase [1] is above 10000 nM; on γ-secretase [2], 1200 nM.

In the case of `Cc1cn(-c2ccc3n(c2=O)C[C@@H](C)N(Cc2c[nH]c4c(I)cccc24)C3=O)cn1` [compound 197], the values for the IC50 against γ-secretase [1] and at γ-secretase [2] were above 10000 nM and 60 nM, respectively.

Take `Cc1cn(-c2ccc3n(c2=O)CC(C)N(Cc2c[nH]c4cc(Br)ccc24)C3=O)cn1` (stereo not shown) [compound 125]: the IC50 against γ-secretase [1] was above 10000 nM; on γ-secretase [2], 50 nM.

With `Cc1cn(-c2ccc3n(c2=O)C[C@@H](C)N(Cc2cc(N4CCC(C(F)(F)F)CC4)ccc2Cl)C3=O)cn1` [compound 81], the IC50 at γ-secretase [1] was above 10000 nM; against γ-secretase [2] it was 220 nM.

On to `Cc1cn(-c2ccc3n(c2=O)C[C@@H](C)N(Cc2cn(C)c4cc(F)ccc24)C3=O)cn1` [compound 242], for which the values for the IC50 at γ-secretase [1] and against γ-secretase [2] were above 10000 nM and 260 nM, respectively.

Consider `C[C@@H]1Cn2c(ccc(-n3ccnc3)c2=O)C(=O)N1Cc1cc(C(F)(F)F)cc(C(F)(F)F)c1` [compound 173], for which the IC50 was above 10000 nM against γ-secretase [1] and 1260 nM at γ-secretase [2].

Regarding `Cc1cn(-c2ccc3n(c2=O)C[C@@H](C)N(Cc2cn(C)c4ccc(C5CC5)cc24)C3=O)cn1` [compound 246], the values for the IC50 against γ-secretase [1] and on γ-secretase [2] were 7000 nM and 20 nM, respectively.

With `Cc1cn(-c2ccc3n(c2=O)C(C)C(C)N(Cc2cc(C(F)(F)F)cc(C(F)(F)F)c2)C3=O)cn1` (single isomer, unassigned) [14a], the IC50 is above 10000 nM against γ-secretase [1] and 1780 nM against γ-secretase [2].

For `Cc1cn(-c2ccc3n(c2=O)CCN(C(C)c2c[nH]c4cc(F)c(Cl)cc24)C3=O)cn1` (single isomer, unassigned) [compound 184], the figures for the IC50 against γ-secretase [1] and on γ-secretase [2] were 9120 nM and 650 nM, respectively.

Turning to `Cc1cn(-c2ccc3n(c2=O)CC(C)N(Cc2ccc(C)c(N4CCCCC4)c2)C3=O)cn1` (stereo not shown) [compound 4], the concentration for half-maximal inhibition (IC50) on γ-secretase [1] was above 10000 nM; against γ-secretase [2], 80 nM.

On to `Cc1cn(-c2ccc3n(c2=O)C[C@@H](C)N(Cc2ccc(Cl)c(N4CCCCC4)c2)C3=O)cn1` [compound 85], for which the IC50 at γ-secretase [1] was above 10000 nM; against γ-secretase [2], 60 nM.

In the case of `Cc1cn(-c2ccc3n(c2=O)C[C@@H](C2CC2)N(Cc2ccc(Cl)c(Cl)c2)C3=O)cn1` [compound 33], the IC50 at γ-secretase [1] is above 10000 nM; against γ-secretase [2], 1660 nM.

As to `Cc1cn(-c2ccc3n(c2=O)C[C@@H](C)N(CCc2cccc(Cl)c2Cl)C3=O)cn1` [compound 231], the IC50 against γ-secretase [1] was above 10000 nM; against γ-secretase [2], 260 nM.

With `Cc1cn(-c2ccc3n(c2=O)CC(C)N(C(C)c2cn(C)c4c(F)cc(Cl)cc24)C3=O)cn1` (single isomer, unassigned) [compound 224], the half-inhibitory concentration (IC50) on γ-secretase [1] turned out to be 1860 nM; against γ-secretase [2], 10 nM.

Turning to `CCn1cc(C(C)N2C(=O)c3ccc(-n4cnc(C)c4)c(=O)n3C[C@H]2C)c2ccc(C(F)(F)F)cc21` (single isomer, unassigned) [compound 235], the results for the IC50 against γ-secretase [1] and against γ-secretase [2] were 6000 nM and 10 nM, respectively.

Take `Cc1cn(-c2ccc3n(c2=O)C[C@@H](CN(C)C)N(Cc2cc(C(F)(F)F)cc(C(F)(F)F)c2)C3=O)cn1` [compound 48]: the values for the half-inhibitory concentration (IC50) on γ-secretase [1] and on γ-secretase [2] were above 10000 nM and 580 nM, respectively.

On to `Cc1cn(-c2ccc3n(c2=O)CC(C)N(C2CCc4ccc(C(F)(F)F)cc42)C3=O)cn1` (stereo not shown) [compound 204], for which the IC50 at γ-secretase [1] was above 10000 nM; against γ-secretase [2], 120 nM.

On to `Cc1cn(-c2ccc3n(c2=O)CCN(C(C)c2cccc(Cl)c2Cl)C3=O)cn1` (racemic) [compound 10], for which the IC50 at γ-secretase [1] is above 10000 nM; at γ-secretase [2], 220 nM.

Consider `Cc1cn(-c2ccc3n(c2=O)CCN(CCc2c[nH]c4ccccc24)C3=O)cn1` [compound 104], for which the IC50 against γ-secretase [1] and on γ-secretase [2] was above 10000 nM throughout.

Regarding `Cc1cn(-c2ccc3n(c2=O)C[C@@H](C)N(Cc2cccc(Cl)c2)C3=O)cn1` [compound 24], the results for the half-inhibitory concentration (IC50) against γ-secretase [1] and against γ-secretase [2] were above 10000 nM and 1100 nM, respectively.

As for `Cc1cn(-c2ccc3n(c2=O)C[C@@H](C)N(Cc2cn(C)c4ccc(OC(F)(F)F)cc24)C3=O)cn1` [compound 253], the IC50 against γ-secretase [1] turned out to be 5000 nM; on γ-secretase [2], 9 nM.

Take `Cc1cn(-c2ccc3n(c2=O)C[C@@H](C)N(Cc2cn(C)c4ccc(Cl)cc24)C3=O)cn1` [compound 137]: the 50% inhibitory concentration (IC50) against γ-secretase [1] was above 10000 nM; against γ-secretase [2], 30 nM.

As to `Cc1cn(-c2ccc3n(c2=O)C[C@@H](C)N(Cc2cc(Br)cc(OC(F)(F)F)c2)C3=O)cn1` [compound 152], the IC50 on γ-secretase [1] is above 10000 nM; on γ-secretase [2] it was 70 nM.

Turning to `CCn1cc(C(C)N2C(=O)c3ccc(-n4cnc(C)c4)c(=O)n3CC2C)c2cc(Cl)cc(F)c21` (single isomer, unassigned) [compound 220], the IC50 came to 6030 nM against γ-secretase [1] and 170 nM against γ-secretase [2].

As to `CNC[C@@H]1Cn2c(ccc(-n3cnc(C)c3)c2=O)C(=O)N1Cc1cc(C(F)(F)F)cc(C(F)(F)F)c1` [compound 49], the IC50 on γ-secretase [1] was above 10000 nM; on γ-secretase [2] it was 3390 nM.

With `Cc1cn(-c2ccc3n(c2=O)C[C@@H](C)N(Cc2cn(C)c4cc(F)c(C5CC5)cc24)C3=O)cn1` [compound 174], the IC50 against γ-secretase [1] was 5000 nM; against γ-secretase [2], 10 nM.

For the compound `COc1cc(C(C)N2C(=O)c3ccc(-n4cnc(C)c4)c(=O)n3C[C@H]2C)cc(C(F)(F)F)c1` (single isomer, unassigned) [compound 148], the IC50 against γ-secretase [1] is above 10000 nM; against γ-secretase [2], 140 nM.

Regarding `Cc1cn(-c2ccc3n(c2=O)CCN(C(C)c2cc(Cl)cc(Cl)c2)C3=O)cn1` (single isomer, unassigned) [compound 209], the IC50 at γ-secretase [1] was above 10000 nM; against γ-secretase [2], 380 nM.

Consider `Cc1cn(-c2ccc3n(c2=O)C[C@@H](C)N(C(C)c2cc(CC4CC4)cc(C(F)(F)F)c2)C3=O)cn1` (single isomer, unassigned) [compound 136], for which the half-maximal inhibitory concentration (IC50) is above 10000 nM against γ-secretase [1] and 40 nM at γ-secretase [2].

Consider `Cc1cn(-c2ccc3n(c2=O)C[C@@H](C)N(Cc2cc(OC(C)C)c(Cl)cc2F)C3=O)cn1` [compound 163], for which the half-maximal inhibitory concentration (IC50) against γ-secretase [1] is above 10000 nM; against γ-secretase [2], 170 nM.

Regarding `CCc1cn(-c2ccc3n(c2=O)CC(CN(C)C)N(Cc2cc(C(F)(F)F)cc(C(F)(F)F)c2)C3=O)cn1` (stereo not shown) [compound 8], the IC50 at γ-secretase [1] was above 10000 nM; on γ-secretase [2] it was 930 nM.

As for `Cc1cn(-c2ccc3n(c2=O)C[C@@H](C)N(Cc2cc(N4CCCCC4)cc(C(F)(F)F)c2)C3=O)cn1` [compound 86], the figures for the half-maximal inhibitory concentration (IC50) against γ-secretase [1] and on γ-secretase [2] were above 10000 nM and 30 nM, respectively.

Regarding `Cc1cn(-c2ccc3n(c2=O)CC(C)N(C2Cc4ccccc4C2)C3=O)cn1` (single isomer, unassigned) [compound 206], the IC50 against γ-secretase [1] and against γ-secretase [2] was above 10000 nM in each case.

Consider `Cc1cn(-c2ccc3n(c2=O)CC(C)N(Cc2c(C)n(C)c4ccc(C(F)(F)F)cc24)C3=O)cn1` (stereo not shown) [compound 181], for which the IC50 at γ-secretase [1] worked out at 4570 nM; against γ-secretase [2], 10 nM.

Turning to `Cc1ccc2c(c1)c(CN1C(=O)c3ccc(-n4cnc(C)c4)c(=O)n3C[C@H]1C)cn2CC(F)(F)F` [compound 262], the IC50 is above 10000 nM on γ-secretase [1] and 20 nM against γ-secretase [2].

As usually defined, the IC50 is the midpoint of a concentration-inhibition curve.
